# Laboratory results as given in patent US20230165846A1, “HETEROCYCLIC GLP-1 AGONISTS” (Gasherbrum Bio, Inc., priority 2020, published 2023).
# Target: T1, GLP-1 Receptor (Homo sapiens, UniProt P43220)
# Experiment: GLP-1R agonist cAMP stimulation assay, Method 2 (HDB HEK293/GLP1R/CRE-LUC, Cisbio cAMP dynamic 2 kit)
# Assay type: cell-based
# Details: HEK293/GLP1R/CRE-LUC cells (HD Biosciences); 30 min at 37° C.; 0.5 mM IBMX, 0.1% BSA; geometric mean where n>=2; read-out: GLP1R cAMP Stimulation DR: EC50 (nM) Method 2 (HDB)
# Procedure: Method 2: Activation of GLP-1 receptor is known to stimulate cyclic AMP (cAMP) production in cells which indicates primary coupling to the Gas subunit of the G protein heterotrimeric complex.
# To optimize functional activity directed toward Gas coupling, a HEK293/CRE-Luc cell line developed by HDB stably expressing the GLP-1 Receptor was used. 200× concentration of compound working solutions were prepared (Agilent Technologies Bravo) with ½log serial dilution in 384-well Echo LDV plate (Labcyte, Cat# LP-0200). […] Seal the plate and incubate at 37° C. with 5% CO2 for 30 min.
# After incubation the cAMP assay signal was generated using cAMP dynamic 2 Kit (Cisbio). 5 µL cAMP-d2 working solution was added to each well, followed with 5 µL Anti-cAMP antibody-cryptate working solution added to each well using ThermoFisher Multidrop Combi. Incubate at room temperature for 1 hour protected from light.
# (§1) %Activity = 100% x (mean RLU of test sample - mean RLU of vehicle control) / (mean RLU of MAX control - mean RLU of vehicle control))
# (§2) This is done to account for the lognormal distribution of multiple estimates of EC50 values. In practice geometric mean is calculated by first generating log values of EC50, averaging replicates and then calculating the antilog of the average.
# T1 sequence (P43220 24-463): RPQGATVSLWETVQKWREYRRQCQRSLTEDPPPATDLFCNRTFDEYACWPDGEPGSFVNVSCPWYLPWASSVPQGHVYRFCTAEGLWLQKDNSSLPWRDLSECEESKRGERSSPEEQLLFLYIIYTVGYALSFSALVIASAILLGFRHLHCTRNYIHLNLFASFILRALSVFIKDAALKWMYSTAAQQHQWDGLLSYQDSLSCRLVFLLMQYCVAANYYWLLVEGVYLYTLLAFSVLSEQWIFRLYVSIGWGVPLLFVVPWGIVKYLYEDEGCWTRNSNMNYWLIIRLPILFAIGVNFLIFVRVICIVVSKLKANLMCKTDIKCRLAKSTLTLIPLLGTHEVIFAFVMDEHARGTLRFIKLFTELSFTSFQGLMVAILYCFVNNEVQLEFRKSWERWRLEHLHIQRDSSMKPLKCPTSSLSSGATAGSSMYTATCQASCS
row,EC50 [nM],Structure (SMILES)
1,0.02,"O=C(O)c1cnc2nc(CC3CC=C(c4cccc(OCc5ccc(Cl)cc5F)n4)CC3)n(C[C@@H]3CCO3)c2c1 (stereo partly drawn) [Compound 118a, 2-((4-(6-((4-chloro-2-fluorobenzyl)oxy)pyridin-2-yl)cyclohex-3-en-1-yl)methyl)-1-(((S)-oxetan-2-yl)methyl)-1H-imidazo[4,5-b]pyridine-6-carboxylic acid]"
2,0.17,"O=C(O)c1cnc2nc(CC3CC=C(c4nccc(OCc5ccc(Cl)cc5F)n4)CC3)n(C[C@@H]3CCO3)c2c1 (stereo partly drawn) [Compound 119a, 2-((4-(4-((4-chloro-2-fluorobenzyl)oxy)pyrimidin-2-yl)cyclohex-3-en-1-yl)methyl)-1-(((S)-oxetan-2-yl)methyl)-1H-imidazo[4,5-b]pyridine-6-carboxylic acid]"
3,0.12,"O=C(O)c1ccc2nc(CC3CC=C(c4ncc(F)c(OCc5ccc(Cl)cn5)n4)CC3)n(C[C@@H]3CCO3)c2n1 (stereo partly drawn) [Compound 120a, 2-((4-(4-((5-chloropyridin-2-yl)methoxy)-5-fluoropyrimidin-2-yl)cyclohex-3-en-1-yl)methyl)-3-(((S)-oxetan-2-yl)methyl)-3H-imidazo[4,5-b]pyridine-5-carboxylic acid]"
4,0.027,"O=C(O)c1ccc2nc(CC3CC=C(c4cccc(OCc5ccc(Cl)cn5)n4)CC3)n(C[C@@H]3CCO3)c2n1 (stereo partly drawn) [Compound 121a, 2-((4-(6-((5-chloropyridin-2-yl)methoxy)pyridin-2-yl)cyclohex-3-en-1-yl)methyl)-3-(((S)-oxetan-2-yl)methyl)-3H-imidazo[4,5-b]pyridine-5-carboxylic acid]"
5,0.43,"N#Cc1ccc(COc2nc(C3=CCC(Cc4nc5ccc(C(=O)O)nc5n4CC4CC4)CC3)ncc2F)c(F)c1 (stereo not drawn) [Compound 122, 2-((4-(4-((4-cyano-2-fluorobenzyl)oxy)-5-fluoropyrimidin-2-yl)cyclohex-3-en-1-yl)methyl)-3-(cyclopropylmethyl)-3H-imidazo[4,5-b]pyridine-5-carboxylic acid]"
6,0.067,"N#Cc1ccc(COc2nc(C3=CCC(Cc4nc5ccc(C(=O)O)nc5n4CC4(C#N)CC4)CC3)ncc2F)c(F)c1 (stereo not drawn) [Compound 123, 2-((4-(4-((4-cyano-2-fluorobenzyl)oxy)-5-fluoropyrimidin-2-yl)cyclohex-3-en-1-yl)methyl)-3-((1-cyanocyclopropyl)methyl)-3H-imidazo[4,5-b]pyridine-5-carboxylic acid]"
7,0.39,"CC(C)(C#N)Cn1c(CC2CC=C(c3ncc(F)c(OCc4ccc(C#N)cc4F)n3)CC2)nc2ccc(C(=O)O)nc21 (stereo not drawn) [Compound 124, 2-((4-(4-((4-cyano-2-fluorobenzyl)oxy)-5-fluoropyrimidin-2-yl)cyclohex-3-en-1-yl)methyl)-3-(2-cyano-2-methylpropyl)-3H-imidazo[4,5-b]pyridine-5-carboxylic acid]"
8,0.045,"N#CC1(Cn2c(CC3CC=C(c4ncc(F)c(OCc5ccc(Cl)cc5F)n4)CC3)nc3ccc(C(=O)O)nc32)CC1 (stereo not drawn) [Compound 125, 2-((4-(4-((4-chloro-2-fluorobenzyl)oxy)-5-fluoropyrimidin-2-yl)cyclohex-3-en-1-yl)methyl)-3-((1-cyanocyclopropyl)methyl)-3H-imidazo[4,5-b]pyridine-5-carboxylic acid]"
9,0.37,"CC(C)(C#N)Cn1c(CC2CC=C(c3ncc(F)c(OCc4ccc(Cl)cc4F)n3)CC2)nc2ccc(C(=O)O)nc21 (stereo not drawn) [Compound 126, 2-((4-(4-((4-chloro-2-fluorobenzyl)oxy)-5-fluoropyrimidin-2-yl)cyclohex-3-en-1-yl)methyl)-3-(2-cyano-2-methylpropyl)-3H-imidazo[4,5-b]pyridine-5-carboxylic acid]"
10,0.83,COCCn1c(CC2CC=C(c3ncc(F)c(OCc4ccc(Cl)cc4F)n3)CC2)nc2ccc(C(=O)O)nc21 (stereo not drawn) [Compound 127]
11,59,"CC#CCn1c(CC2CC=C(c3cccc(OCc4ccc(Cl)cc4F)n3)CC2)nc2ccc(C(=O)O)nc21 (stereo not drawn) [Compound 128, 3-(but-2-yn-1-yl)-2-((4-(6-((4-chloro-2-fluorobenzyl)oxy)pyridin-2-yl)cyclohex-3-en-1-yl)methyl)-3H-imidazo[4,5-b]pyridine-5-carboxylic acid]"

# The remaining lines, values behind:
row,Structure (SMILES),EC50 [nM]
1,"N#Cc1ccc(COc2cccc(C3=CCC(Cc4nc5ccc(C(=O)O)nc5n4C[C@@H]4CCO4)CC3)n2)c(F)c1 (single isomer, unassigned) [Compound 101b]",0.0088
2,"N#Cc1ccc(COc2cccc(C3=CCC(Cc4nc5ccc(C(=O)O)nc5n4C[C@@H]4CCO4)CC3)n2)c(F)c1 (single isomer, unassigned) [Compound 101c]",0.083
3,"O=C(O)c1ccc2nc(CC3CC=C(c4cccc(OCc5ccc(Cl)cc5F)n4)CC3)n(C[C@@H]3CCO3)c2n1 (single isomer, unassigned) [Compound 102b]",0.007
4,"O=C(O)c1ccc2nc(CC3CC=C(c4cccc(OCc5ccc(Cl)cc5F)n4)CC3)n(C[C@@H]3CCO3)c2n1 (single isomer, unassigned) [Compound 102c]",0.044
5,"O=C(O)c1ccc2nc(CC3CC=C(c4ncc(F)c(OCc5ccc(Cl)cc5F)n4)CC3)n(C[C@@H]3CCO3)c2n1 (single isomer, unassigned) [Compound 114b]",0.012
6,"O=C(O)c1ccc2nc(CC3CC=C(c4ncc(F)c(OCc5ccc(Cl)cc5F)n4)CC3)n(C[C@@H]3CCO3)c2n1 (single isomer, unassigned) [Compound 114c]",0.13
7,"N#Cc1ccc(COc2cccc(C3=CCC(Cc4nc5ccc(C(=O)O)nc5n4C[C@@H]4CCO4)CC3)n2)c(F)c1 (stereo partly drawn) [Compound 101a, 2-((4-(6-((4-cyano-2-fluorobenzyl)oxy)pyridin-2-yl)cyclohex-3-en-1-yl)methyl)-3-(((S)-oxetan-2-yl)methyl)-3H-imidazo[4,5-b]pyridine-5-carboxylic acid]",0.019
8,"O=C(O)c1ccc2nc(CC3CC=C(c4ccc(F)c(OCc5ccc(Cl)cc5F)n4)CC3)n(C[C@@H]3CCO3)c2n1 (stereo partly drawn) [Compound 113a, 2-((4-(6-((4-chloro-2-fluorobenzyl)oxy)-5-fluoropyridin-2-yl)cyclohex-3-en-1-yl)methyl)-3-(((S)-oxetan-2-yl)methyl)-3H-imidazo[4,5-b]pyridine-5-carboxylic acid]",0.015
9,"O=C(O)c1ccc2nc(CC3CC=C(c4ncc(F)c(OCc5ccc(Cl)cc5F)n4)CC3)n(C[C@@H]3CCO3)c2n1 (stereo partly drawn) [Compound 114a, 2-((4-(4-((4-chloro-2-fluorobenzyl)oxy)-5-fluoropyrimidin-2-yl)cyclohex-3-en-1-yl)methyl)-3-(((S)-oxetan-2-yl)methyl)-3H-imidazo[4,5-b]pyridine-5-carboxylic acid]",0.02
10,"N#Cc1ccc(COc2nc(C3=CCC(Cc4nc5ccc(C(=O)O)nc5n4C[C@@H]4CCO4)CC3)ccc2F)c(F)c1 (stereo partly drawn) [Compound 115a, 2-((4-(6-((4-cyano-2-fluorobenzyl)oxy)-5-fluoropyridin-2-yl)cyclohex-3-en-1-yl)methyl)-3-(((S)-oxetan-2-yl)methyl)-3H-imidazo[4,5-b]pyridine-5-carboxylic acid]",0.018
11,"O=C(O)c1cc2c(cn1)nc(CC1CC=C(c3cccc(OCc4ccc(Cl)cc4F)n3)CC1)n2C[C@@H]1CCO1 (stereo partly drawn) [Compound 116a, 2-((4-(6-((4-chloro-2-fluorobenzyl)oxy)pyridin-2-yl)cyclohex-3-en-1-yl)methyl)-1-(((S)-oxetan-2-yl)methyl)-1H-imidazo[4,5-c]pyridine-6-carboxylic acid]",0.73
12,"N#Cc1ccc(COc2cccc(C3=CCC(Cc4nc5cnc(C(=O)O)cc5n4C[C@@H]4CCO4)CC3)n2)c(F)c1 (stereo partly drawn) [Compound 117a, 2-((4-(6-((4-cyano-2-fluorobenzyl)oxy)pyridin-2-yl)cyclohex-3-en-1-yl)methyl)-1-(((S)-oxetan-2-yl)methyl)-1H-imidazo[4,5-c]pyridine-6-carboxylic acid]",0.37

# Target: T1, GLP-1 Receptor
# Experiment: GLP-1R agonist cAMP stimulation assay, Method 1 (DiscoverX CHO-K1, enzyme fragment complementation)
# Assay type: cell-based
# Details: CHO-K1 cell line (DiscoverX) stably expressing GLP-1 Receptor; incubation 30 or 60 min at 37° C.; geometric mean where n>=2; read-out: GLP1R cAMP Stimulation DR: EC50 (nM) Method 1
# Procedure: Activation of GLP-1 receptor is known to stimulate cyclic AMP (cAMP) production in cells which indicates primary coupling to the Gas subunit of the G protein heterotrimeric complex.
# Method 1: To optimize functional activity directed toward Gas coupling, a CHO—K1 cell line developed by DiscoverX stably expressing the GLP-1 Receptor was used. Cells expressing GLP-1 receptor were plated in a 384-well microtiter plates and incubated overnight at 37° C. with 5% CO2 to allow the cells to attach and grow. Media was then aspirated from the cells and replaced with 15 uL 2:1 Hanks Balanced Salt Solution (HBSS)/10mM Hepes : cAMP XS+ Ab reagent. Five microliters (5 uL) of previously generated compound sample stocks at 4x final concentration in assay buffer were then added to the cells and allowed to incubate at 37° C. for 30 or 60 minutes.
# After incubation the assay signal was generated using enzyme fragment complementation (EFC). In EFC, the enzyme B-galactosidase is split into two complementary portions (EA and ED). The fragment ED is fused to cAMP and in the assay format competes with endogenous cAMP for binding to a cAMP specific antibody. Activated β—Gal is formed when exogenous EA fragment binds to free ED-cAMP (not bound to cAMP specific antibody). Activated enzyme levels are detected through conversion of β-gal chemiluminescent substrate which generates a detectable luminescence signal and read on standard microtiter plate.
# The methodology for detection of cAMP using EFC requires incubation with 20uL of cAMP XS+ ED/CL lysis cocktail for one hour followed by incubation with 20 uL cAMP XS+ EA reagent for three hours at room temperature. Microplates were read following signal generation with a PerkinElmer Envision instrument utilizing chemiluminescent signal detection. Compound activity was analyzed using CBIS data analysis suite (ChemInnovation, CA). Percentage activity was calculated using the following formula:
# as §1, §2
row,EC50 [nM],Structure (SMILES)
1,< 0.051,"N#Cc1ccc(COc2cccc(C3=CCC(Cc4nc5ccc(C(=O)O)nc5n4C[C@@H]4CCO4)CC3)n2)c(F)c1 (stereo partly drawn) [Compound 101a, 2-((4-(6-((4-cyano-2-fluorobenzyl)oxy)pyridin-2-yl)cyclohex-3-en-1-yl)methyl)-3-(((S)-oxetan-2-yl)methyl)-3H-imidazo[4,5-b]pyridine-5-carboxylic acid]"
